Test results: patent US12454531B2, “Substituted piperazine derivatives useful as T cell activators” (BRISTOL-MYERS SQUIBB COMPANY, priority 2019, dated 2025)

What follows are compounds tested against DGKζ (Homo sapiens (Human), UniProt Q13574) (assay: Assay 1 or 2: In Vitro DGK Inhibition Assays (DGKζ LIPGLO, extruded liposome)). Conditions: extruded liposome substrate, 150 μM ATP.
Assay type: biochemical
Procedure: (§1) Assay 1: In Vitro DGK Inhibition Assays—Method A
(§2) The DGKα and DGKζ reactions were performed using either extruded liposome (DGKα and DGKζ LIPGLO assays) or detergent/lipid micelle substrate (DGKα and DGKζ assays). The reactions were carried out in 50 mM MOPS pH 7.5, 100 mM NaCl, 10 mM MgCl2, 1 μM CaCl2), and 1 mM DTT (assay buffer). The reactions using a detergent/lipid micelle substrate also contained 50 mM octyl B-D-glucopyranoside. The lipid substrate concentrations were 11 mM PS and 1 mM DAG for the detergent/lipid micelle reactions. The lipid substrate concentrations were 2 mM PS, 0.25 mM DAG, and 2.75 mM PC for the extruded liposome reactions. The reactions were carried out in 150 μM ATP. The enzyme concentrations for the DGKα and DGKζ were 5 nM
(§3) The compound inhibition studies were carried out as follows: 50 nL droplets of each test compound (top concentration 10 mM with 11 point, 3-fold dilution series for each compound) solubilized in DMSO were transferred to wells of a white 1536 well plate (Corning 3725). A 5 mL enzyme/substrate solution at 2× final reaction concentration was prepared by combining 2.5 mL 4× enzyme solution (20 nM DGKα or DGKζ (prepared as described below) in assay buffer) and 2.5 mL of either 4× liposome or 4× detergent/lipid micelle solution (compositions described below) and incubated at room temperature for 10 minutes. Next, 1 μL 2× enzyme/substrate solution was added to wells containing the test compound and reactions were initiated with the addition of 1 μL 300 uM ATP. The reactions were allowed to proceed for 1 hr, after which 2 μL Glo Reagent (Promega V9101) was added and incubated for 40 minutes. Next, 4 μL Kinase Detection Reagent was added and incubated for 30 minutes. Luminescence was recorded using an EnVision microplate reader. […] The compounds were evaluated at 11 concentrations to determine IC50.
(§4) The lipid composition was 5 mol % DAG (Avanti 8008110), 40 mol % PS (Avanti 840035P), and 55 mol % PC (Avanti 850457) at a total lipid concentration of 15.2 mg/mL for the 4× liposome solution. The PC, DAG, and PS were dissolved in chloroform, combined, and dried in vacuo to a thin film. The lipids were hydrated to 20 mM in 50 mM MOPS pH 7.5, 100 mM NaCl, 5 mM MgCl2, and were freeze-thawed five times. The lipid suspension was extruded through a 100 nm polycarbonate filter eleven times. […] The liposome preparation was stored at 4° C. for as long as four weeks.
(§5) Baculovirus amplification was achieved using infected Sf9 cells at 1:1500 virus/cell ratios, and grown for 65 hours at 27° C. post-transfection.
(§6) The cells were lysed using nitrogen cavitation method with a nitrogen bomb (Parr Instruments), and the lysates were clarified by centrifugation. […] The three steps column chromatography included nickel affinity resin capture (i.e. HisTrap FF crude, GE Healthcare), followed by size exclusion chromatography (i.e. HiLoad 26/600 Superdex 200 prep grade, GE Healthcare for DGK-alpha, and HiPrep 26/600 Sephacryl S 300_HR, GE Healthcare for DGK-zeta). The third step was ion exchange chromatography, and differed for the two isoforms. DGKα was polished using Q-Sepharose anion exchange chromatography (GE Healthcare). DGKζ was polished using SP Sepharose cation exchange chromatography (GE Healthcare). The proteins were delivered at concentrations of ≥2 mg/mL. The formulation buffers were identical for both proteins: 50 mM Hepes, pH 7.2, 500 mM NaCl, 10% v/v glycerol, 1 mM TCEP, and 0.5 mM EDTA.
Assay 2: In Vitro DGK Inhibition Assays—Method B
The DGKα and DGKζ reactions were performed using either extruded liposome (DGKα and DGKζ LIPGLO assays) or detergent/lipid micelle substrate (DGKα and DGKζ assays).

Chain of DGKζ (Q13574 other isoform, or with tags, fused parts or gaps): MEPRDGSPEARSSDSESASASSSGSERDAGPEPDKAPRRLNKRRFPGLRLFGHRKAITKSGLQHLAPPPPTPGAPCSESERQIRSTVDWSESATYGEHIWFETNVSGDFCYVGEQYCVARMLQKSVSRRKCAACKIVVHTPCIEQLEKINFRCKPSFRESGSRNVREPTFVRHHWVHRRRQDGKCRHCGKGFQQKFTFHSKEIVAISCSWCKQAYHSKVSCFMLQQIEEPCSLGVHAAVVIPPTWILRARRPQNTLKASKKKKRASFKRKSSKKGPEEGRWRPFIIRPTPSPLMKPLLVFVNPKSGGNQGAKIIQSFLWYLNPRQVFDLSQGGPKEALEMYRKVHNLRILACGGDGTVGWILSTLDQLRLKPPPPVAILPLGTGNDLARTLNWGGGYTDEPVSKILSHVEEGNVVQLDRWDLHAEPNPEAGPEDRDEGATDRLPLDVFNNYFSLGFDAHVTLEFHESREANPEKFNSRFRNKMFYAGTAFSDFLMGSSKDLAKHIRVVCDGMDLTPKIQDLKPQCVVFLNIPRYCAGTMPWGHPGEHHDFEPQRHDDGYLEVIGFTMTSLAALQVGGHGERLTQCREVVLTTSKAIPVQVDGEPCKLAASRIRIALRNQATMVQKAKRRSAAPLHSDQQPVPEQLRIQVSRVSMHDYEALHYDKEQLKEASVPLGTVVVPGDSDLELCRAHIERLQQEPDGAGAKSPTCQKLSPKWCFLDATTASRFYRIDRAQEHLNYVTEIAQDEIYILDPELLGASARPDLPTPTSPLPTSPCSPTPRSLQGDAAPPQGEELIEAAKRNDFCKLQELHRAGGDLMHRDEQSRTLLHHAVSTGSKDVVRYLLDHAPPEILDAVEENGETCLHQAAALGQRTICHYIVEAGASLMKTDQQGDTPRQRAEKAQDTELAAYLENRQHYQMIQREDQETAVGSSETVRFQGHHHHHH

Row | SMILES | IC50
1 | C[C@@H]1CN(c2cc(=O)n(C)c3ccc(C#N)nc23)[C@@H](C)CN1C(C(=O)N1CCCCC1)c1ccc(F)cc1 (single isomer, unassigned) [Example 11] | 1.22 µM
2 | C[C@@H]1CN(c2cc(=O)n(C)c3ccc(C#N)nc23)[C@@H](C)CN1C(CC(=O)NC(C)(C)C)c1ccc(F)cc1 (single isomer, unassigned) [Example 33] | 11.1 µM
3 | C[C@@H]1CN(c2cc(=O)n(C)c3ccc(C#N)nc23)[C@@H](C)CN1C(CC(=O)NC(C)(C)C)c1ccc(F)cc1 (single isomer, unassigned) [Example 34] | 6.84 µM

These compounds were tested against DGKα (Homo sapiens (Human), UniProt P23743) (assay: Assay 1: In Vitro DGK Inhibition Assays, Method A (DGKα LIPGLO, extruded liposome)). Conditions: extruded liposome substrate, 150 μM ATP.
Chain of DGKα (P23743 whole entry): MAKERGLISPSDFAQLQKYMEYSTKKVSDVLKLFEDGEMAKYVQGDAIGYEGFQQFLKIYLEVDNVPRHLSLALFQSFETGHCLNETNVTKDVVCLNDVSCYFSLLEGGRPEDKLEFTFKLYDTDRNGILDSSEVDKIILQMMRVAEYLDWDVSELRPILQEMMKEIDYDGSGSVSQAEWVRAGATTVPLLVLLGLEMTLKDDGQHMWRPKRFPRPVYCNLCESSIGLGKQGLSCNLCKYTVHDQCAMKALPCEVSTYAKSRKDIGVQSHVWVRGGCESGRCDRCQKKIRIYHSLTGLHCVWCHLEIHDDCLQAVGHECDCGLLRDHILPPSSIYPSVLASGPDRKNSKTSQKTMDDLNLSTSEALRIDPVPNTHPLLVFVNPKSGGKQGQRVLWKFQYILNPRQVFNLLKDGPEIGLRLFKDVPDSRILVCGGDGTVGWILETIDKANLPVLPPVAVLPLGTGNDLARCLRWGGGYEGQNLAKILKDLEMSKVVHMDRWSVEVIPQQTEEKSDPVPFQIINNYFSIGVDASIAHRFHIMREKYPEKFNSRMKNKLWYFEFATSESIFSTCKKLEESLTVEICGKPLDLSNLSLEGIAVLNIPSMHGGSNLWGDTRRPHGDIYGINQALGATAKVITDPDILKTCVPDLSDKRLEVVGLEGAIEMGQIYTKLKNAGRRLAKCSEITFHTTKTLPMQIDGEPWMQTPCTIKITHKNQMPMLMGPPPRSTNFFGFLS
Assay type: biochemical
Procedure: as §1, §2, §3, §4, §5, §6

Row | SMILES | IC50
4 | C[C@@H]1CN(c2cc(=O)n(C)c3ccc(C#N)nc23)[C@@H](C)CN1C(C(=O)N1CCCCC1)c1ccc(F)cc1 (single isomer, unassigned) [Example 11] | 0.51 µM
5 | C[C@@H]1CN(c2cc(=O)n(C)c3ccc(C#N)nc23)[C@@H](C)CN1C(CC(=O)NC(C)(C)C)c1ccc(F)cc1 (single isomer, unassigned) [Example 33] | 6.36 µM
6 | C[C@@H]1CN(c2cc(=O)n(C)c3ccc(C#N)nc23)[C@@H](C)CN1C(CC(=O)NC(C)(C)C)c1ccc(F)cc1 (single isomer, unassigned) [Example 34] | 4.04 µM

What follows are compounds tested on Human whole blood IFN-γ (assay: Assay 10: Human Whole Blood IFN-γ Assay). Conditions: Homo sapiens, 24 h, anti-CD3 and anti-CD28 stimulation, 100% = 3 μM reference compound, read-out: INFg Whole Blood Normalized Agonist EC50.
Assay type: cell-based
Procedure: Assay 10: Human Whole Blood IFN-γ Assay
Human venous whole blood (22.5 μL per well), obtained from healthy donors, was pre-treated with compounds for one hour at 37° C. in a humidified 95% air/5% CO2 incubator. The blood was stimulated with 2.5 μL anti-human CD3 and anti-CD28 mAb at a final concentration of 1 μg/mL each for 24 hours at 37° C. IFN-7 in the supernatants was measured using AlphLISA kit (Cat #AL217).

Row | SMILES | EC50
7 | C[C@@H]1CN(c2cc(=O)n(C)c3ccc(C#N)nc23)[C@@H](C)CN1C(C(=O)O)c1ccc(F)cc1 (single isomer, unassigned) [Example 10] | 20 µM
8 | CC(C(=O)NC1CCCC1)N1C[C@H](C)N(c2cc(=O)n(C)c3ccc(C#N)nc23)C[C@H]1C (single isomer, unassigned) [Example 43] | 20 µM
9 | C[C@@H]1CN(c2cc(=O)n(C)c3ccc(C#N)nc23)[C@@H](C)CN1C(c1ccc(F)cc1)P(C)(C)=O (single isomer, unassigned) [Example 49] | 20 µM
10 | COC(=O)C(c1ccc(F)cc1)N1C[C@H](C)N(c2cc(=O)n(C)c3ccc(C#N)nc23)C[C@H]1C (stereo partly drawn) [Example 7, Methyl 2-((2R,5S)-4-(6-cyano-1-methyl-2-oxo-1,2-dihydro-1,5-naphthyridin-4-yl)-2,5-dimethylpiperazin-1-yl)-2-(4-fluorophenyl)acetate] | 0.1 µM
11 | C[C@@H]1CN(c2cc(=O)n(C)c3ccc(C#N)nc23)[C@@H](C)CN1C(C(N)=O)c1ccc(F)cc1 (stereo partly drawn) [Example 13, 2-((2R,5S)-4-(6-cyano-1-methyl-2-oxo-1,2-dihydro-1,5-naphthyridin-4-yl)-2,5-dimethylpiperazin-1-yl)-2-(4-fluorophenyl)acetamide] | 20 µM
12 | C[C@@H]1CN(c2cc(=O)n(C)c3ccc(C#N)nc23)[C@@H](C)CN1C(C(=O)N(C)C)c1ccc(F)cc1 (stereo partly drawn) [Example 23, 2-((2R,5S)-4-(6-cyano-1-methyl-2-oxo-1,2-dihydro-1,5-naphthyridin-4-yl)-2,5-dimethylpiperazin-1-yl)-2-(4-fluorophenyl)-N,N-dimethylacetamide] | 20 µM
13 | C[C@@H]1CN(c2cc(=O)n(C)c3ccc(C#N)nc23)[C@@H](C)CN1C(C(=O)NCCO)c1ccc(F)cc1 (stereo partly drawn) [Example 27, 2-((2R,5S)-4-(6-cyano-1-methyl-2-oxo-1,2-dihydro-1,5-naphthyridin-4-yl)-2,5-dimethylpiperazin-1-yl)-2-(4-fluorophenyl)-N-(2-hydroxyethyl)acetamide] | 1.54 µM
14 | CC(C(=O)Nc1cnn(C)c1)N1C[C@H](C)N(c2cc(=O)n(C)c3ccc(C#N)nc23)C[C@H]1C (stereo partly drawn) [Example 45, 2-((2R,5S)-4-(6-cyano-1-methyl-2-oxo-1,2-dihydro-1,5-naphthyridin-4-yl)-2,5-dimethylpiperazin-1-yl)-N-(1-methyl-1H-pyrazol-4-yl)propanamide] | 20 µM
15 | CC(C(=O)NC1CC1)N1C[C@H](C)N(c2cc(=O)n(C)c3ccc(C#N)nc23)C[C@H]1C (stereo partly drawn) [Example 47, 2-((2R,5S)-4-(6-cyano-1-methyl-2-oxo-1,2-dihydro-1,5-naphthyridin-4-yl)-2,5-dimethylpiperazin-1-yl)-N-cyclopropylpropanamide] | 20 µM

Same assay, conditions: anti-CD3 and anti-CD28 stimulation, 24 hours, 100% = 3 μM reference compound, read-out: INFg Whole Blood Normalized Agonist EC50

Row | SMILES | EC50
16 | CC(C)OC(=O)C(c1ccc(F)cc1)N1C[C@H](C)N(c2cc(=O)n(C)c3ccc(C#N)nc23)C[C@H]1C (single isomer, unassigned) [Example 1] | 0.61 µM
17 | COC(=O)CC(c1ccc(F)cc1)N1C[C@H](C)N(c2cc(=O)n(C)c3ccc(C#N)nc23)C[C@H]1C (single isomer, unassigned) [Example 31] | 0.15 µM
18 | COC(=O)CC(c1ccc(F)cc1)N1C[C@H](C)N(c2cc(=O)n(C)c3ccc(C#N)nc23)C[C@H]1C (single isomer, unassigned) [Example 32] | 1.81 µM
19 | CC(C(=O)NC1CCCC1)N1C[C@H](C)N(c2cc(=O)n(C)c3ccc(C#N)nc23)C[C@H]1C (single isomer, unassigned) [Example 44] | 20 µM
20 | C[C@@H]1CN(c2cc(=O)n(C)c3ccc(C#N)nc23)[C@@H](C)CN1C(c1ccc(F)cc1)P(C)(C)=O (single isomer, unassigned) [Example 50] | 20 µM
21 | C[C@@H]1CN(c2cc(=O)n(C)c3ccc(C#N)nc23)[C@@H](C)CN1C(C(N)=O)c1ccc(F)cc1 (stereo partly drawn) [Example 14, 2-((2R,5S)-4-(6-cyano-1-methyl-2-oxo-1,2-dihydro-1,5-naphthyridin-4-yl)-2,5-dimethylpiperazin-1-yl)-2-(4-fluorophenyl)acetamide] | 20 µM
22 | C[C@@H]1CN(c2cc(=O)n(C)c3ccc(C#N)nc23)[C@@H](C)CN1C(C(=O)N1CCCC1)c1ccc(F)cc1 (stereo partly drawn) [Example 21, 8-((2S,5R)-4-(1-(4-fluorophenyl)-2-oxo-2-(pyrrolidin-1-yl)ethyl)-2,5-dimethylpiperazin-1-yl)-5-methyl-6-oxo-5,6-dihydro-1,5-naphthyridine-2-carbonitrile] | 2.56 µM
23 | C[C@@H]1CN(c2cc(=O)n(C)c3ccc(C#N)nc23)[C@@H](C)CN1C(C(=O)N1CCCC1)c1ccc(F)cc1 (stereo partly drawn) [Example 22, 8-((2S,5R)-4-(1-(4-fluorophenyl)-2-oxo-2-(pyrrolidin-1-yl)ethyl)-2,5-dimethylpiperazin-1-yl)-5-methyl-6-oxo-5,6-dihydro-1,5-naphthyridine-2-carbonitrile] | 9.03 µM
24 | C[C@@H]1CN(c2cc(=O)n(C)c3ccc(C#N)nc23)[C@@H](C)CN1C(C(=O)N(C)C)c1ccc(F)cc1 (stereo partly drawn) [Example 24, 2-((2R,5S)-4-(6-cyano-1-methyl-2-oxo-1,2-dihydro-1,5-naphthyridin-4-yl)-2,5-dimethylpiperazin-1-yl)-2-(4-fluorophenyl)-N,N-dimethylacetamide] | 20 µM
25 | CNC(=O)C(c1ccc(F)cc1)N1C[C@H](C)N(c2cc(=O)n(C)c3ccc(C#N)nc23)C[C@H]1C (stereo partly drawn) [Example 25, 2-((2R,5S)-4-(6-cyano-1-methyl-2-oxo-1,2-dihydro-1,5-naphthyridin-4-yl)-2,5-dimethylpiperazin-1-yl)-2-(4-fluorophenyl)-N-methylacetamide] | 5.12 µM
26 | CC(C(=O)Nc1cnn(C)c1)N1C[C@H](C)N(c2cc(=O)n(C)c3ccc(C#N)nc23)C[C@H]1C (stereo partly drawn) [Example 46, 2-((2R,5S)-4-(6-cyano-1-methyl-2-oxo-1,2-dihydro-1,5-naphthyridin-4-yl)-2,5-dimethylpiperazin-1-yl)-N-(1-methyl-1H-pyrazol-4-yl)propanamide] | 20 µM
27 | CC(C(=O)NC1CC1)N1C[C@H](C)N(c2cc(=O)n(C)c3ccc(C#N)nc23)C[C@H]1C (stereo partly drawn) [Example 48, 2-((2R,5S)-4-(6-cyano-1-methyl-2-oxo-1,2-dihydro-1,5-naphthyridin-4-yl)-2,5-dimethylpiperazin-1-yl)-N-cyclopropylpropanamide] | 20 µM
